The values that follow are results of earlier work, collected in patent publication US7445902B2, “Fluorescent nucleotide analogues” (GE Healthcare UK Limited, priority 2004, dated 2008).

This data set relates to receptor-Gαs/Gαi fusion proteins. The conditions noted are these: binding to receptor-Gαs/Gαi fusion proteins in the expression systems employed.

Consider “BODIPY-FL-guanosine 5′-[β,γ-imido]triphosphate [B-GppNHp]”, for which the “fold lower affinity than GppNHp” value (relative to GppNHp) was 17-55 fold.
For the substance “BODIPY-FL-guanosine 5′-[γ-thio]triphosphate [B-GTPγS]”, the “fold lower affinity than GTPγS” value (relative to GTPγS) is listed as 1,100-5,600 fold.
